Patent US20120101100A1 (priority 2008, published 2012)

molecular target: S. aureus GyrB ATPase (Staphylococcus aureus, UniProt P0A0K8); assay: S. aureus (SAU) GyrB ATPase inhibition, malachite green phosphate detection (E. coli GyrA + S. aureus GyrB); type: biochemical; conditions: compound concentration of 1.0 μM unless otherwise noted; average value where assay was carried out more than once; read-out: S. aureus (SAU) GyrB ATPase % Inhibition
Experimental: Compounds were tested for inhibition of GyrB ATPase activity using an ammonium molybdate/malachite green-based phosphate detection assay (Lanzetta, P. A., L. J. Alvarez, P. S. Reinach, and O. A. Candia, 1979, 100: 95-97). Assays were performed in multiwell plates in 100 μl reactions containing: 50 mM Hepes buffer pH 7.5, 75 mM ammonium acetate, 8.0 mM magnesium chloride, 1.0 mM ethylenediaminetetraacetic acid, 5% glycerol, 2 mM 1,4-Dithio-DL-threitol, 400 nM bovine serum albumin, 5 μg/ml sheared salmon sperm DNA, 1.25 nM E. coli GyrA, 1.25 nM S. aureus GyrB, 500 μM ATP, and compound in dimethylsulfoxide. Reactions were quenched with 150 μl of ammonium molybdate/malachite green detection reagent containing 1.2 mM malachite green hydrochloride, 8.5 mM ammonium molybdate tetrahydrate, and 1 M hydrochloric acid. Plates were read in an absorbance plate reader at 650 nm and percent inhibition values were calculated using dimethylsulfoxide (2%)-containing reactions as 0% inhibition and novobiocin-containing (2 μM) reactions as 100% inhibition controls. Compound potency was based on IC50 measurements determined from reactions performed in the presence of 10 different compound concentrations.

S. aureus GyrB ATPase, sequence (P0A0K8 whole entry): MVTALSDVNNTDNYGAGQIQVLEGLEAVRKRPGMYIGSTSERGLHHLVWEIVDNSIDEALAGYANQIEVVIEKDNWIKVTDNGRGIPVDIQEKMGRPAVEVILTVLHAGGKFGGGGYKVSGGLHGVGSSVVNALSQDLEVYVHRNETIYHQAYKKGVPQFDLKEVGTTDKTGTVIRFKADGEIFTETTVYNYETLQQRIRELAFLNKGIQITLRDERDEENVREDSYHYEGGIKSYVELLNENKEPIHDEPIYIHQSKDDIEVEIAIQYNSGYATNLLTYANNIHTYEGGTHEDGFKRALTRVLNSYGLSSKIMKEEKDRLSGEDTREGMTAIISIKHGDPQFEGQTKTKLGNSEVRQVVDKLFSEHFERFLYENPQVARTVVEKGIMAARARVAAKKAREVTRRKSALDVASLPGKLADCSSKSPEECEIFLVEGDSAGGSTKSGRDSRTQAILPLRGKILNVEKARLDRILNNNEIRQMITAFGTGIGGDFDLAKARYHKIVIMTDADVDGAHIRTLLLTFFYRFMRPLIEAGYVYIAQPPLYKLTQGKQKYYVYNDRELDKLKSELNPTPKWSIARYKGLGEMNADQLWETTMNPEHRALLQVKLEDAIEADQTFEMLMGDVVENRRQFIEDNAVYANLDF
S. aureus GyrB ATPase, sequence (P0AES4 whole entry, further chain): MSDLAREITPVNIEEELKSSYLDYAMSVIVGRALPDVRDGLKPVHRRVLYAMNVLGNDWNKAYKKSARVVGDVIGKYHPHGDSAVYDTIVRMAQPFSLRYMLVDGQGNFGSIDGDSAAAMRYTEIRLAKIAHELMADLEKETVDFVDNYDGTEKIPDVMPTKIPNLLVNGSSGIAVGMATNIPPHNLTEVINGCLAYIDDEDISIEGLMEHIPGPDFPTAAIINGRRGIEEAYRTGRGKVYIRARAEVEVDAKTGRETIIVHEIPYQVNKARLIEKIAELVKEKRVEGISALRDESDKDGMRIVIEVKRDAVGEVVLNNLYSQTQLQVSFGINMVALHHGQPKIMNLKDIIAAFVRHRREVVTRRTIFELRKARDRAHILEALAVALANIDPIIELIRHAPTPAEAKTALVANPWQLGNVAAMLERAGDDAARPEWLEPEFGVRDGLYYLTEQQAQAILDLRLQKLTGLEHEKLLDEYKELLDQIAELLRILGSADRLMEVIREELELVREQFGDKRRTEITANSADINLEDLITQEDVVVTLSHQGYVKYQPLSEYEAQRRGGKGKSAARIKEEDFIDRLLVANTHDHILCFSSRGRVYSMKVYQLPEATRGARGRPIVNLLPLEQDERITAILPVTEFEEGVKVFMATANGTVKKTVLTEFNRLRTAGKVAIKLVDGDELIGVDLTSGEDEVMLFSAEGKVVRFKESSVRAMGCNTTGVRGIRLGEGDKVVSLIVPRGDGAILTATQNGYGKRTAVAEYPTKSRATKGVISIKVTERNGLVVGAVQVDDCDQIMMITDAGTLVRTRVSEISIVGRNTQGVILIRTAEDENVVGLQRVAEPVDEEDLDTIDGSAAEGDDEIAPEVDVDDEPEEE

Compared with CCNC(=O)Nc1cc(-c2nc(C(F)(F)F)c(C(=O)NCCN3CCN(C)CC3)s2)c(-c2cncc(-c3n[nH]c(=O)o3)c2)cn1 [Example 63], CCNC(=O)Nc1cc(-c2nc(C(F)(F)F)c(C(=O)NCCN3CCN(C)CC3)s2)c(-c2cncc(-c3nnc(C)o3)c2)cn1 [Example 64, 2-(6-(3-ethylureido)-5′-(5-methyl-1,3,4-oxadiazol-2-yl)-3,3′-bipyridin-4-yl)-N-(2-(4-methylpiperazin-1-yl)ethyl)-4-(trifluoromethyl)thiazole-5-carboxamide] is higher in inhibition at 1 µM: 96% for the first, 98% for the second.

Going from CCNC(=O)Nc1cc(-c2nc(C(F)(F)F)c(C(=O)NC3CC3)s2)c(-c2cncc(-c3n[nH]c(=O)o3)c2)cn1 [Example 65] to CCNC(=O)Nc1cc(-c2nc(C(F)(F)F)c(C(=O)NC3CCCC3)s2)c(-c2cncc(-c3n[nH]c(=O)o3)c2)cn1 [Example 67, N-cyclopentyl-2-(6-(3-ethylureido)-5′-(5-oxo-4,5-dihydro-1,3,4-oxadiazol-2-yl)-3,3′-bipyridin-4-yl)-4-(trifluoromethyl)thiazole-5-carboxamide], the inhibition at 1 µM falls from 94% to 93%.

First: CCNC(=O)Nc1cc(-c2nc(C(F)(F)F)c(C(=O)NC3CC3)s2)c(-c2cncc(-c3nnc(C)o3)c2)cn1 [Example 66, N-cyclopropyl-2-(6-(3-ethylureido)-5′-(5-methyl-1,3,4-oxadiazol-2-yl)-3,3′-bipyridin-4-yl)-4-(trifluoromethyl)thiazole-5-carboxamide]
Second: CCNC(=O)Nc1cc(-c2nc(C(F)(F)F)c(C(=O)NC3CCCC3)s2)c(-c2cncc(-c3nnc(C)o3)c2)cn1 [Example 68, N-cyclopentyl-2-(6-(3-ethylureido)-5′-(5-methyl-1,3,4-oxadiazol-2-yl)-3,3′-bipyridin-4-yl)-4-(trifluoromethyl)thiazole-5-carboxamide]
The inhibition at 1 µM of the first is lower: 93% for the first, 96% for the second.

Going from CCNC(=O)Nc1cc(-c2nc(C(F)(F)F)c(C(=O)NC3CCCCC3)s2)c(-c2cncc(-c3n[nH]c(=O)o3)c2)cn1 [Example 69, N-cyclohexyl-2-(6-(3-ethylureido)-5′-(5-oxo-4,5-dihydro-1,3,4-oxadiazol-2-yl)-3,3′-bipyridin-4-yl)-4-(trifluoromethyl)thiazole-5-carboxamide] to CCNC(=O)Nc1cc(-c2nc(C(F)(F)F)c(C(=O)NC3CCCCC3)s2)c(-c2cncc(-c3nnc(C)o3)c2)cn1 [Example 70, N-cyclohexyl-2-(6-(3-ethylureido)-5′-(5-methyl-1,3,4-oxadiazol-2-yl)-3,3′-bipyridin-4-yl)-4-(trifluoromethyl)thiazole-5-carboxamide], the inhibition at 1 µM rises from 91% to 96%.

First: CCNC(=O)Nc1cc(-c2nc(C(F)(F)F)cs2)c(-c2cc(-c3n[nH]c(=O)o3)cnc2CC)cn1 [Example 71, 1-ethyl-3-(2′-ethyl-5′-(5-hydroxy-1,3,4-oxadiazol-2-yl)-4-(4-(trifluoromethyl)thiazol-2-yl)-3,3′-bipyridin-6-yl)urea]
Second: CCNC(=O)Nc1cc(-c2nc(C(F)(F)F)cs2)c(-c2cc(-c3nnc(C)o3)cnc2CC)cn1 [Example 73, 1-ethyl-3-(2′-ethyl-5′-(5-methyl-1,3,4-oxadiazol-2-yl)-4-(4-(trifluoromethyl)thiazol-2-yl)-3,3′-bipyridin-6-yl)urea]
The inhibition at 1 µM of the first is lower: 93% for the first, 97% for the second.

Compared with CCNC(=O)Nc1cc(-c2nc(-c3ccccc3)cs2)c(-c2cc(-c3n[nH]c(=O)o3)cnc2CC)cn1 [Example 72, 1-ethyl-3-(2′-ethyl-5′-(5-hydroxy-1,3,4-oxadiazol-2-yl)-4-(4-phenylthiazol-2-yl)-3,3′-bipyridin-6-yl)urea], CCNC(=O)Nc1cc(-c2nc(-c3ccccc3)cs2)c(-c2cc(-c3nnc(C)o3)cnc2CC)cn1 [Example 74] is lower in inhibition at 1 µM: 95% for the first, 94% for the second.

Going from CCNC(=O)Nc1cc(-c2nc(C(F)(F)F)cs2)c(-c2cc(OCC)nc(-c3n[nH]c(=O)o3)c2)cn1 [Example 75, 1-(2′-ethoxy-6′-(5-oxo-4,5-dihydro-1,3,4-oxadiazol-2-yl)-4-(4-(trifluoromethyl)thiazol-2-yl)-3,4′-bipyridin-6-yl)-3-ethylurea] to CCNC(=O)Nc1cc(-c2nc(C(F)(F)F)cs2)c(-c2cc(OCCN(C)C)nc(-c3n[nH]c(=O)o3)c2)cn1 [Example 92, 1-(2′-(2-(dimethylamino)ethoxy)-6′-(5-oxo-4,5-dihydro-1,3,4-oxadiazol-2-yl)-4-(4-(trifluoromethyl)thiazol-2-yl)-3,4′-bipyridin-6-yl)-3-ethylurea], the inhibition at 1 µM rises from 99% to 104%.

Going from CCNC(=O)Nc1cc(-c2nc(C(F)(F)F)cs2)c(-c2cc(OCC)nc(-c3nnc(C)o3)c2)cn1 [Example 76, 1-(2′-ethoxy-6′-(5-methyl-1,3,4-oxadiazol-2-yl)-4-(4-(trifluoromethyl)thiazol-2-yl)-3,4′-bipyridin-6-yl)-3-ethylurea] to CCNC(=O)Nc1cc(-c2nc(C(F)(F)F)cs2)c(-c2cc(OC(C)C)nc(-c3nnc(C)o3)c2)cn1 [Example 80, 1-ethyl-3-(2′-isopropoxy-6′-(5-methyl-1,3,4-oxadiazol-2-yl)-4-(4-(trifluoromethyl)thiazol-2-yl)-3,4′-bipyridin-6-yl)urea], the inhibition at 1 µM falls from 100% to 96%.

First: CCNC(=O)Nc1cc(-c2nc(-c3ccccc3)cs2)c(-c2cc(OCC)nc(-c3n[nH]c(=O)o3)c2)cn1 [Example 77, 1-(2′-ethoxy-6′-(5-oxo-4,5-dihydro-1,3,4-oxadiazol-2-yl)-4-(4-phenylthiazol-2-yl)-3,4′-bipyridin-6-yl)-3-ethylurea]
Second: CCNC(=O)Nc1cc(-c2nc(-c3ccccc3)cs2)c(-c2cc(OCC3CC3)nc(-c3n[nH]c(=O)o3)c2)cn1 [Example 85, 1-(2′-(cyclopropylmethoxy)-6′-(5-oxo-4,5-dihydro-1,3,4-oxadiazol-2-yl)-4-(4-phenylthiazol-2-yl)-3,4′-bipyridin-6-yl)-3-ethylurea]
The inhibition at 1 µM of the first is higher: 97% for the first, 93% for the second.

Compared with CCNC(=O)Nc1cc(-c2nc(-c3ccccc3)cs2)c(-c2cc(OCC)nc(-c3nnc(C)o3)c2)cn1 [Example 78, 1-(2′-ethoxy-6′-(5-methyl-1,3,4-oxadiazol-2-yl)-4-(4-phenylthiazol-2-yl)-3,4′-bipyridin-6-yl)-3-ethylurea], CCNC(=O)Nc1cc(-c2nc(-c3ccccc3)cs2)c(-c2cc(OC(C)C)nc(-c3nnc(C)o3)c2)cn1 [Example 82, 1-ethyl-3-(2′-isopropoxy-6′-(5-methyl-1,3,4-oxadiazol-2-yl)-4-(4-phenylthiazol-2-yl)-3,4′-bipyridin-6-yl)urea] is lower in inhibition at 1 µM: 99% for the first, 86% for the second.

Going from CCNC(=O)Nc1cc(-c2nc(C(F)(F)F)cs2)c(-c2cc(OC(C)C)nc(-c3n[nH]c(=O)o3)c2)cn1 [Example 79, 1-ethyl-3-(2′-isopropoxy-6′-(5-oxo-4,5-dihydro-1,3,4-oxadiazol-2-yl)-4-(4-(trifluoromethyl)thiazol-2-yl)-3,4′-bipyridin-6-yl)urea] to CCNC(=O)Nc1cc(-c2nc(C(F)(F)F)cs2)c(-c2cc(OCC3CC3)nc(-c3n[nH]c(=O)o3)c2)cn1 [Example 83, 1-(2′-(cyclopropylmethoxy)-6′-(5-oxo-4,5-dihydro-1,3,4-oxadiazol-2-yl)-4-(4-(trifluoromethyl)thiazol-2-yl)-3,4′-bipyridin-6-yl)-3-ethylurea], the inhibition at 1 µM falls from 95% to 94%.

CCNC(=O)Nc1cc(-c2nc(-c3ccccc3)cs2)c(-c2cc(OC(C)C)nc(-c3n[nH]c(=O)o3)c2)cn1 [Example 81, 1-ethyl-3-(2′-isopropoxy-6′-(5-oxo-4,5-dihydro-1,3,4-oxadiazol-2-yl)-4-(4-phenylthiazol-2-yl)-3,4′-bipyridin-6-yl)urea] and CCNC(=O)Nc1cc(-c2nc(-c3ccccc3)cs2)c(-c2cc(-c3n[nH]c(=O)o3)nc(N3CCOCC3)c2)cn1 [Example 88] are the same in inhibition at 1 µM: 94% for the first, 94% for the second.

Going from CCNC(=O)Nc1cc(-c2nc(C(F)(F)F)cs2)c(-c2cc(-c3n[nH]c(=O)o3)nc(N3CCOCC3)c2)cn1 [Example 86, 1-ethyl-3-(2′-morpholino-6′-(5-oxo-4,5-dihydro-1,3,4-oxadiazol-2-yl)-4-(4-(trifluoromethyl)thiazol-2-yl)-3,4′-bipyridin-6-yl)urea] to CCNC(=O)Nc1cc(-c2nc(C(F)(F)F)cs2)c(-c2cc(-c3nnc(C)o3)nc(N3CCOCC3)c2)cn1 [Example 87, 1-ethyl-3-(2′-morpholino-6′-(5-methyl-1,3,4-oxadiazol-2-yl)-4-(4-(trifluoromethyl)thiazol-2-yl)-3,4′-bipyridin-6-yl)urea], the inhibition at 1 µM rises from 97% to 99%.

First: CCNC(=O)Nc1cc(-c2nc(-c3ccccc3)cs2)c(-c2cc(-c3nnc(C)o3)nc(N3CCOCC3)c2)cn1 [Example 89, 1-ethyl-3-(2′-(5-methyl-1,3,4-oxadiazol-2-yl)-6′-morpholino-4-(4-phenylthiazol-2-yl)-3,4′-bipyridin-6-yl)urea]
Second: CCNC(=O)Nc1cc(-c2nc(-c3ccccc3)cs2)c(-c2cncc(-c3nnc(C)o3)c2)cn1 [Example 94, 1-ethyl-3-(5′-(5-methyl-1,3,4-oxadiazol-2-yl)-4-(4-phenylthiazol-2-yl)-3,3′-bipyridin-6-yl)urea]
The inhibition at 1 µM of the first is lower: 87% for the first, 98% for the second.

Work on CCNC(=O)Nc1cc(-c2nc(C(F)(F)F)cs2)c(-c2cc(OC3CCN(C)CC3)nc(-c3n[nH]c(=O)o3)c2)cn1 [Example 90, 1-ethyl-3-(2′-(1-methylpiperidin-4-yloxy)-6′-(5-oxo-4,5-dihydro-1,3,4-oxadiazol-2-yl)-4-(4-(trifluoromethyl)thiazol-2-yl)-3,4′-bipyridin-6-yl)urea] yielded an inhibition at 1 µM of 116%.
